Measured values published in patent publication US12502391B2, “Multi-kinase inhibitors of VEGF and TGF beta and uses thereof” (AIVIVA BIOPHARMA, INC., priority 2018, dated 2025).
Where “and” joins values, the source holds several entries; their conditions need not be identical. Equal entries are not always repeated. Structures can show the parent of a compound that is named as a salt.

Key:
[1] = tested on: suture-induced ocular fibrosis; assay: Rabbit corneal suture-induced ocular fibrosis model; type: in vivo, rabbits; details: topical three times daily, 10-day observation period
From the text: In order to investigate the anti-fibrotic effect of test compounds following wounding in the eye, a suture-induced ocular fibrosis model was used. Suture was placed intrastromally under a microscope in the cornea of rabbits. In each eye, one 9.0 silk suture was placed, in a vertical position, temporal to the corneal center and a second suture was placed nasal to the corneal center. Each suture had two stromal incursions approximately 2 mm from the limbus. Test compounds having certain spectrum of multikinase inhibition activities and/or vehicle were topically instilled (35 uL/eye) in the eyes three times daily for 10 days the day following surgery. The treatment groups include vehicle, nintedanib (0.3%, w/v), pirfenidone (1%, w/v), riociguat (0.3%, w/v), sorafenib (0.3%, w/v) and lenvatinib (0.3%, w/v). Six left eyes were used per treatment group.
The animals were sacrificed on Day 11 and the eyes enucleated and dissected for histopathological evaluation.

[2] = tested on: full-thickness excision wounds; assay: Histology of full-thickness excision wounds in Yucatan minipigs (fibroplasia, neovascularization); type: in vivo; details: Yucatan minipig wound sites after two doses, Day 59, scale 1 (minimal) to 5 (severe); for Neovascularization; dermis, average score: untreated 2.33; for Fibroplasia; dermis, average score: untreated 3.33
From the text: (§1) In this experiment, multiple full-thickness excision wounds were made to the dorsum of Yucatan minipigs, and the wound sites were allowed to be re-epithelialized adequately. At four weeks post-wound, the wound sites had normal to pink vascularity and had pliability. Epidermal hyperplasia was observed, as expected for regenerative responses in the full-thickness wounds.
(§2) On Day 28 post-wound, a dose (e.g., 1%) of axitinib, nintedanib, riociguat, sorafenib, sunitinib, and/or lenvatinib was administered into the dermal tissue at or around the wound sites, once every two weeks on two occasions. One wound site was left untreated as the control for each pig. Please note that the particular parameters in this example are only for illustration. One skilled in the art would appreciate that the dosages, administration methods, treatment regimen, and the administration sites may be varied to achieve similar results.
On Day 59 post wound, the minipigs were sacrificed and dermal tissues were collected for qualitative and quantitative evaluation using hematoxylin and eosin, and Mason's Trichrome staining. Dermal fibroplasia was characterized by increased numbers of fibroblasts in the dermis suspended in variable amounts of collagen in wounds.

[3] = tested on: TGF-β1 mRNA; assay: TGF-β1 mRNA expression (qRT-PCR) in Yucatan pig skin wound sites; type: in vivo, Yucatan minipigs; details: Yucatan pig skin wound sites after treatments; for TGF-β1 mRNA Expression Fold Relative to Untreated Unwounded Control: individual animals 7369, 7370, 7371, duplicate sets 1 and 2, beta actin reference gene
From the text: as §1, §2
In addition, total mRNA was isolated from skin biopsies of the treated wound sites and the untreated unwounded sites of the pigs. The mRNA samples were used to prepare cDNA and analyzed via qRT-PCR. The TGF-β1 expression levels were assessed using beta actin as a reference gene.

[4] = tested on: rabbit ear hypertrophic scar; assay: Histopathology of rabbit ear wounds (neovascularization, fibrosis, re-epithelization); type: in vivo, New Zealand white rabbits; design: key to Total Score, Treated Mean: aggregate of neovascularization, fibrosis, re-epithelization grades; key to Neovascularization score, Treated Mean / Fibrosis/Collagen score, Treated Mean / Re-epithelization score, Treated Mean: five-step severity grade: minimal, mild, moderate, marked, severe; details: rabbit ear wound, intradermal dosing of 1 wt. %
Method: In New Zealand white rabbits, maintained under a surgical plane of anesthesia, trauma stimulation of the skin on the ventral surface of both ears is initiated on Day 1. Trauma sites are evaluated on Days 8, 15, 22, 29, 36, and 43. On days 15 and 29, each site is dosed with test compounds (e.g., 1% w/w, 100 μl) by intradermal or intralesional injections.
At necropsy, each treatment site was harvested and preserved for hematoxylin and […] and Mason's trichrome stainings. Each lesion was examined histologically and graded for neovascularization, fibrosis and re-epithelization using a five-step/severity grading system (minimal, mild, moderate, marked, and severe). The average total score is an aggregation of these microscopic findings relating to an inflammatory response.

[5] = tested on: benign prostate hyperplasia; assay: Testosterone and phenylephrine induced benign prostate hyperplasia in rats; type: in vivo, Wistar rats; design: key to epithelial hyperplasia score, dorsolateral prostate, representative image / epithelial hyperplasia score, ventral prostate, representative image: severity grade 0 = not present to 5 = severe
Method: BPH is a true hyperplastic process. Histologic studies have documented an increase in cell number. A study was conducted, therefore, to determine the effects of test compounds and vehicle on testosterone (TE) and phenylephrine (PE) induced benign prostate hyperplasia in rats. Male Wistar rats were induced with testosterone (2 mg/kg) plus phenylephrine (5 mg/kg) administered daily by subcutaneous injection on days 5 through 32. Vehicle or test compounds (all at 1% w/w), nintedanib, sunitinib, lenvatinib, and 0.5% doxazosin mesylate, were administered by intra-prostate injection (0.4 ml) in dorsolateral and ventral lobes on days 1 and 18. Animals were euthanized on day 32. Body weights were determined and prostate glands were harvested. The experimental design is outlined in Table 6.
At necropsy, the ventral and dorsolateral lobes of the prostate were separated and then cut into halves. The left halves were fixed in 10% neutral buffered formalin, sectioned, and stained with Hematoxylin and Eosin (H&E). Histological changes in these sections were scored. Epithelial hyperplasia was recognized as an increase in epithelial cells within normal-appearing gland profiles, primarily reflected by stratification of epithelial cells and increased presence of epithelial tufting and papillary projections. A severity grade of 0 (not present) through 5 (severe) was assigned to each sample.

[6] = tested on: subconjunctival scarring; assay: Bleb survival after glaucoma filtration surgery in rabbit eyes; type: in vivo, rabbits
Method: In order to investigate the anti-scarring effect of topically applied test compounds following ocular surgeries, glaucoma filtration surgery was performed on rabbit eyes. Postoperative subconjunctival wound healing is a major cause of late bleb failure after glaucoma filtration surgery in humans. Select multikinase inhibitors were tested for effect on bleb survival over time. Inhibition of subconjunctival fibrosis following surgery will improve bleb survival. Vehicle was used as a negative control and pirfenidone was used a positive control.
A scleral tract was created in the left eyes superiorally by tunneling a beveled 22-gauge intravenous cannula through the sclera, beginning behind the limbus and continuing until the cannula is visible in the anterior chamber. The cannula was flushed with sodium heparin (1000 units) prior to placement. The cannula needle was withdrawn and the cannula advanced beyond the pupillary margin to prevent iris blockage of the tube. The cannula was trimmed approximately 2 mm and secured to the sclera using suture. Both the Tenon's and the conjunctiva were sutured with 9-0 Prolene. Six rabbits were used per group and the left eye of each rabbit underwent glaucoma filtration surgery. The treatment groups include vehicle control, pirfenidone (1%, w/v) as a positive control, sorafenib (0.3%, w/v), and lenvatinib (0.3%, w/v). Eyedrops (35 uL) were topically applied to the eyes following surgery three times day for 30 days. All animals were sacrificed on Day 30.
Bleb was monitored throughout the study. Bleb volumes were measured with the use of calibrated calipers. […] There were differences noted between groups at Day 7, and the majority of blebs were gone by Day 14 through Day 30 indicating bleb failure due to subconjunctival scarring. Results of the vehicle and pirfenidone groups were similar to those reported in the literature (Zhong H et al., Invest Ophthalmol Vis Sci, 52: 3136-3142, 2011).

[7] = five-step severity grading (minimal to severe)
[8] = TE and PE induced rats, intra-prostate injection 0.4 ml on days 1 and 18 (1% w/w; doxazosin mesylate 0.5%), severity grade 0 (not present) through 5 (severe), induced vehicle score=4

COC(=O)N(C)c1c(N)nc(-c2nn(Cc3ccccc3F)c3ncccc23)nc1N [riociguat]
gross ocular observations: conjunctival congestion and swelling [1]: slightly more severe reaction | Neovascularization; dermis, average score [2]: (2.67) | Fibroplasia; dermis, average score [2]: (2.67) | reduction of TGF-β1 mRNA expression levels at treated wounds [3]: most effective | TGF-β1 mRNA Expression Fold Relative to Untreated Unwounded Control [3]: 0.60 fold and 0.76 fold and 0.87 fold and 0.39 fold and 0.49 fold and 0.8 fold

CNC(=O)c1ccccc1Sc1ccc2c(/C=C/c3ccccn3)n[nH]c2c1 [axitinib]
Neovascularization; dermis, average score [2]: (1.67) | Fibroplasia; dermis, average score [2]: (2.33) | TGF-β1 mRNA Expression Fold Relative to Untreated Unwounded Control [3]: 0.89 fold and 0.68 fold (2×) and 0.64 fold and 0.37 fold and 0.78 fold | average total score of test wounds, fold lower than untreated wounds [4]: about 1.3 fold | Total Score, Treated Mean ([4]; aggregation of microscopic findings): 4.6 | Fibrosis/Collagen score, Treated Mean [4, 7]: 3.3 | Neovascularization score, Treated Mean [4, 7]: 1 | Re-epithelization score, Treated Mean [4, 7]: 0.3

CCN(CC)CCNC(=O)c1c(C)[nH]c(/C=C2\C(=O)Nc3ccc(F)cc32)c1C [sunitinib]
Neovascularization; dermis, average score [2]: (2.33) | Fibroplasia; dermis, average score [2]: (2.67) | epithelial hyperplasia score, ventral prostate, representative image ([5]; 1 % strength): 3 | epithelial hyperplasia score, dorsolateral prostate, representative image [5, 8]: 3 | TGF-β1 mRNA Expression Fold Relative to Untreated Unwounded Control [3]: 0.50 fold and 0.53 fold and 0.48 fold and 0.45 fold and 0.64 fold and 1.86 fold

COc1cc2nc(N3CCN(C(=O)C4COc5ccccc5O4)CC3)nc(N)c2cc1OC (centres unmarked) [doxazosin, doxazosin mesylate]
epithelial hyperplasia score, dorsolateral prostate, representative image [5, 8]: 3 | epithelial hyperplasia score, ventral prostate, representative image [5, 8]: 3 | glandular hyperplasia compared to untreated TE/PE induced prostates ([5]; TE and PE induced rats, intra-prostate injection on days 1 and 18): demonstrated reduction of glandular hyperplasia

Cc1ccc(=O)n(-c2ccccc2)c1 [pirfenidone]
bleb survival on Day 7 ([6]; eyedrops 35 uL three times a day, pirfenidone 1% w/v, lenvatinib 0.3% w/v, compared to vehicle and sorafenib groups): kept bleb survival on Day 7 | bleb remaining / bleb failure on Day 30 ([6]; eyedrops three times a day for 30 days, 6 animals per group): demonstrated bleb failure
